Results taken from US3950374A, “Carbamate pesticide” (priority 1972, dated 1976).
Values after ≈ are worked out from the molar mass of the structure shown. Where two headings read alike, the source gives them in different places.

How the values were obtained:
Type in all cases: in vivo
nematode = test: Effect on nematode (Test Example 6); conditions: 500 ppm active ingredient; after 24 hours
Experimental: 0.5 ml. of a nematode-containing aqueous solution separated from food is placed in a test tube with ground stopper containing 0.5 ml. of an aqueous dilute solution of each emulsifiable concentrate of the present compounds. The concentration of the active ingredient in the mixture is adjusted to 500 ppm. After 24 hours, the number of dead and live nematodes are observed microscopically to calculate the mortality rate.

[1] = system: smaller brown planthoppers (Lacdelphax striatellus); test: Lethal effect on smaller brown planthoppers (Test Example 1)
Experimental: Lethal effect on smaller brown planthoppers (Lacdelphax striatellus)
Rice plants (15 to 20 cm tall) 15 days after germination, are dipped for 1 minute into each aqueous dilute solution of the present compounds in the form of emulsifiable concentrates, and placed in large glass tubes separately after air-drying. Thereafter, 20 to 30 adult planthoppers are released therein and covered with a wire net. After 24 hours, the number of dead and live planthoppers are observed to calculate LC50. The number of the compounds in Table 1 correspond to those of the compounds mentioned above.

[2] = system: smaller brown planthoppers (Loadelphax striatellus); test: Residual effect on smaller brown planthoppers (Test Example 11); conditions: 1000 fold dilute solution of 50 % emulsifiable concentrate; for Mortality after 4 days: after 4 days (residual effect); for Mortality after 7 days: after 7 days (residual effect)
Experimental: Residual effect on smaller brown planthoppers (Loadelphax striatellus).
From 18 to 23 rice plants are grown into a 3 - 4 leaves stage in each flower pot of 10 cm. in diameter, then a 1000 fold aqueos dilute solution of each 50 % emulsifiable concentrate of the present componds is applied thereto. After air-drying, each pot is covered with a wire cage, and 20 - 30 adult planthoppers are released therein, and after 24 hours the mortality rate is calculated. Furthermore, the planthoppers are released each day to investigate the residual effect of the present compounds.

[3] = system: green rice leafhoppers (Nephotettix cincpiceps); test: Effect on green rice leafhoppers in soil treatment (Test Example 4); conditions: 6 % granules, 6 kg./10 ares soil treatment; released after 3 days, observed after 24 hours
Experimental: Effect on green rice leafhoppers (Nephotettix cincpiceps) in soil treatment.
(§1) Each of 6 % granules of the present compounds is applied in a ratio of 6 kg./10 ares near the root of rice plants grown into the tillering stage in a 1/100,000 Wagner's pot. After 3 days, 30 adult leafhoppers are released and covered with a wire cage. After 24 hours, the number of dead and live leafhoppers are observed to calculate the mortality rate.

[4] = system: larvae of northern house mosquito (Culex pipien pallens); test: Effect on mosquito larvae (Test Example 8)
Experimental: Effect on mosquito larvae.
200 ml. of an aqueous solution of each emulsifiable concentrate of the present compounds which is adjusted to the concentration of 1 ppm with pure water are placed in a 300 ml. beaker and 30 larvae of northern house mosquito (Culex pipien pallens) are released therein. the mortality rate is calculated.

[5] = system: green peach aphids (Myzus persicae); test: Effect on green peach aphids in soil treatment (Test Example 3); conditions: 5 % granules, 6 kg./10 ares soil treatment; after 3 days; chinese cabbages
Excerpt: Effect on green peach aphids (Myzus persicae) in soil treatment.
Many of the aphids are made parasitic on chinese cabbages grown in a pot one month after sowing, and each of 5 % granules of the present compounds is applied in a ratio of 6 kg./10 ares near the root thereof. After 3 days, the number of dead and live aphids are observed to calculate the mortality rate.

[6] = system: rice stem borer (Chilo suppressalis); test: Lethal effect on rice stem borer (Test Example 5); conditions: 1000 fold dilute solution of 50 % emulsifiable concentrate; 4 days after application
Excerpt: Lethal effect on rice stem borer (Chilo suppressalis).
Eggs just before hatching of the rice stem borer are applied in a ratio of 100/pot near the root of rice plants grown into the tillering stage in a 1/100,000 Wagner's pot. After the eggs hatched and the larvae enter into stems of rice plants, a 1000 fold dilute solution of each 50 % emulsifiable concentrate of the present compounds is applied by means of a turn table. The number of dead and live stem borers are observed to calculate the mortality rate 4 days after application.

[7] = system: tobacco cut worm (Spodoptera litura); test: Effect on tobacco cut worm (Test Example 7); conditions: 1000 fold dilute solution of emulsifiable concentrate, fourth instar larvae
Experimental: Effect on tobacco cut worm (Spodoptera litura).
A 1000 fold dilute solution of each emulsifiable concentrate of the present compounds is applied by means of a turn table to a potted chinese cabbage 60 days after sowing. After air-drying, fourth instar larvae of the tobacco cut worm are released and the mortality rate after 24 hours and 48 hours is calculated.

[8] = system: smaller brown planthoppers (Laodelphax striatellus); test: Effect on smaller brown planthoppers in soil treatment (Test Example 2); conditions: 6 % granules, 6 kg./10 ares soil treatment; released after 3 days, observed after 24 hours
Experimental: Effect on smaller brown planthoppers (Laodelphax striatellus) in soil treatment.
as §1, with “stage” for “stage in”, “planthoppers” for “leafhoppers”

[9] = system: carmine mite (Tetranychus telarius); test: Acaricidal activity on carmine mite (Test Example 10); conditions: 1000 fold dilute solution of 40 % wettable powder, 10 ml./pot, after 10 days
Experimental: Acaricidal activity on carmine mite (Tetranychus telarius).
From 10 to 15 female carmine mites are made parasitic, in a ratio of 10 - 15/leaf, on leaves of potted kidney beans is (a leaves stage), 9 days after sowing, and kept at 27°C. For a week in a constant temperature room, then breeding of numerous carmine mites at various growth stages can be observed. At this time, a 1000 fold aqueous dilute solution of each 40 % wettable powder of the present compounds is sprayed by means of a turn table in a ratio of 10 ml./pot. After 10 days, the degree of damage of kidney beans and the degree of breeding of mites are observed and classified into five grades (-, +, […] , +++, ++++ ).
The degree of damage of kidney bean leaves:
-; damage is hardly observed, […]
and the degree of damage in between the two extremes is classified into three grades.
The degree of breeding of carmine mites: -; the number alive is less than 10, ++++; the alive are numerous, and the degree of breeding in between the two extremes is classified into three grades.

| Compound | Mortality (nematode) | LC50 ([1]; 24 h) | Mortality after 1 day [2] | Mortality after 4 days [2] | Mortality after 7 days [2] | Mortality [3] | further results |
| --- | --- | --- | --- | --- | --- | --- | --- |
| CN(C(=O)Oc1ccc(Cl)cc1)[S+]([O-])c1ccccc1 (stereo not drawn) [Compound 2] | 79.8% | 20 µg/mL (≈ 64.6 µM) | 96.7% | 75.0% | 20.0% | 75.0% |  |
| Cc1cccc(OC(=O)N(C)[S+]([O-])c2ccccc2)c1C (stereo not drawn) [Compound 3] |  | 70 µg/mL (≈ 231 µM) | 100% | 64.0% | 50.0% |  |  |
| Cc1ccc(OC(=O)N(C)[S+]([O-])c2ccccc2)c(C)c1 (stereo not drawn) [Compound 4] |  | 33 µg/mL (≈ 109 µM) | 100% | 83.3% | 53.3% |  |  |
| Cc1cc(C)cc(OC(=O)N(C)[S+]([O-])c2ccccc2)c1 (stereo not drawn) [Compound 5] |  | 18 µg/mL (≈ 59.3 µM) | 100% | 100% | 45.0% | 68.0% |  |
| Cc1ccc(OC(=O)N(C)[S+]([O-])c2ccccc2)cc1C (stereo not drawn) [Compound 6] | 100% | 25 µg/mL (≈ 82.4 µM) | 90.0% | 63.3% | 50.0% |  | mortality at 1 ppm [4]: 70% |
| Cc1cccc(OC(=O)N(C)[S+]([O-])c2ccccc2)c1 (stereo not drawn) [Compound 7] |  | 43 µg/mL (≈ 149 µM) | 86.7% | 65.0% | 46.7% | 96.7% |  |
| Cc1ccc([S+]([O-])N(C)C(=O)Oc2ccc(C)c(C)c2)cc1 (stereo not drawn) [Compound 8] |  | 50 µg/mL (≈ 158 µM) | 85.0% | 50.0% | 42.0% |  | mortality at 1 ppm [4]: 100% |
| Cc1ccc([S+]([O-])N(C)C(=O)Oc2cccc(C)c2C)cc1 (stereo not drawn) [Compound 9] |  | 29 µg/mL (≈ 91.4 µM) | 100% | 62.3% | 30.0% | 83.3% | mortality at 1 ppm [4]: 66.7% |
| Cc1ccc(OC(=O)N(C)[S+]([O-])c2ccc([N+](=O)[O-])cc2)cc1C (stereo not drawn) [Compound 10] |  | 33 µg/mL (≈ 94.7 µM) | 100% | 50.0% | 23.3% | 72.2% |  |
| Cc1ccc(OC(=O)N(C)[S+]([O-])c2ccc(Cl)cc2)cc1C (stereo not drawn) [Compound 11] | 75.0% | 40 µg/mL (≈ 118 µM) | 100% | 85.0% | 75.0% |  | mortality at 1 ppm [4]: 100% |
| CCC[S+]([O-])N(C)C(=O)ON=C(C)SC (stereo not drawn) [Compound 13] | 100% |  |  |  |  |  | Mortality [5]: 96.7%; Mortality [6]: 83.2%; Mortality After 24 hrs. [7]: 100%; Mortality After 48 hrs. [7]: 100% |
| CCCCCCCCCCCC[S+]([O-])N(C)C(=O)ON=C(C)SC (stereo not drawn) [Compound 14] | 100% |  |  |  |  |  | Mortality [5]: 76.5%; Mortality [8]: 90.0%; Mortality After 24 hrs. [7]: 90%; Mortality After 48 hrs. [7]: 100% |
| CSC(C)=NOC(=O)N(C)[S+]([O-])c1ccccc1 (stereo not drawn) [Compound 15] | 100% |  |  |  |  | 70.0% | LC50 ([1]; rice plants dipped 1 minute in dilute emulsifiable concentrate, after 24 hours, read-out: LC50): 123 µg/mL (≈ 430 µM); Mortality [5]: 95.9%; mortality at 1 ppm ([4]; 1 ppm aqueous solution of emulsifiable concentrate, 30 larvae, time not stated, read-out: Mortality): 78.3%; Degree of breeding ([9]; carmine mites): - (the number alive is less than 10); Degree of damage ([9]; kidney bean leaves): -~+; Mortality [6]: 82.3% |
| CCC(=NOC(=O)N(C)[S+]([O-])c1ccccc1)SC (stereo not drawn) [Compound 19] |  |  |  |  |  |  | Mortality [6]: 66.7% |
| CCCSC(C)=NOC(=O)N(C)[S+]([O-])c1ccc(Cl)cc1 (stereo not drawn) [Compound 21] | 65.0% |  |  |  |  |  |  |
| CNC(=O)Oc1ccc(C)c(C)c1 [Meobal, 3,4-dimethylphenyl-N-methylcarbamate, reference compound] |  |  | 100% | 53.2% | 10.0% |  |  |
